US20040220205A1 (priority 2001, published 2004)
Several values for one entry are separate records, joined by “and”; a condition that tells them apart may be missing. Equal values may be shown once. Where a name gives a salt, the structure may show the parent alone.

How the values were obtained:
rat = experiment: Behavioural experiment - entero-coated pill; format: in vivo
Method: One entero-coated tablet prepared as described in Example 1 and containing about 5 mg of NPA hydrochloride was placed under anesthesia (isoflurane) in the throat of a rat and pushed down the throat with a blunt instrument. Within five minutes, the rat was awake and exploring the cage. After about 3 to 4 hours, the rat began to show dopaminergic stimulatory signs like sniffing, chewing, penile licking, grooming and stereotypy with rearing, locomotor activity, intense sniffing and also licking. This stereotypy lasted for more than 24 hours.
(§1) Pharmacological Experiment 2 was repeated but using an enterocoated tablet prepared as described in Example 3 containing about 1 mg of mono-pivaloyl-N-propyl-noraporphine (MPNPA) base instead of NPA hydrochloride.

[1] = test system: dopamine release (striatum); experiment: Microdialysis experiment (striatum) with one entero-coated tablet; format: in vivo; conditions: rat striatum microdialysis
Method: One entero-coated tablet prepared as described in Example 1 and containing about 5 mg of NPA hydrochloride was administered to a rat in the way described in Pharmacological Experiment 2 and a standard microdialysis was carried out.
Pharmacological Experiment 2 was repeated but using an entero-coated tablet containing about 5 mg of mono-pivaloyl-apomorphine base instead of NPA hydrochloride.
as §1

[2] = earlier reports on symmetric di-esters of aporphines; cited from earlier work
rats = experiment: Behavioural experiment - injection into duodenum (with oral control); format: in vivo, rat; conditions: for duration of dopaminergic behavior: dur (total duration of action) / duration of dopaminergic behavior: intense stereotypy / duration of dopaminergic behavior: less intense stereotypy: rat, bolus injection into duodenum; for duration of dopaminergic behavior: intense stereotypy / duration of dopaminergic behavior: less intense stereotypy: period after injection
From the text: These rats had been operated 1-14 days before the experiment. A plastic tubing was introduced entering through the duodenum wall at about the mid section and bent in such a way that it had its duct directed downwards (i.e. aiming downstream towards the jejunum and being about 2 cm long). An experienced scientist observed the animals for the entire period of pharmacological activity, scoring the behavior and emphasizing the following details:
yawning, sniffing, chewing, licking, rearing, grooming, penile grooming, locomotor activity and stereotypy. The total duration of action where one or several of these behaviors were present was scored.

[3] = one entero-coated tablet containing about 5 mg, pushed down the throat
[4] = one entero-coated tablet containing about 5 mg NPA hydrochloride
[5] = one entero-coated tablet containing about 5 mg mono-pivaloyl-apomorphine base
[6] = control experiment, administered orally to the same rat, 4 mg/kg

In the case of `CCCN1CCc2cccc3c2[C@H]1Cc1ccc(O)c(O)c1-3` [NPA hydrochloride, 6aR-(-)-N-propyl-norapomorphine], the duration of stereotypy (rat; [3]) is reported as “more than 24 hours”, the “time until dopaminergic stimulatory signs began” value (rat; [3]) is reported as 3 to 4 h and the “dopamine release, maximal decrease” value [1, 4] is reported as “about 20% of control values”. The “time of maximal decrease in dopamine release” value [1, 4] was “after about four hours” and the “duration of maximal decrease in dopamine release” value ([1]; one entero-coated tablet containing about 5 mg NPA hydrochloride, until the experiment was stopped) was “lasting for several hours”.
In the case of `CN1CCc2cccc3c2C1Cc1ccc(OC(=O)C(C)(C)C)c(OC(=O)C(C)(C)C)c1-3` (stereo not drawn) [di-pivaloyl ester, di-pivaloyl esters of apomorphine], the “activity compared with parent compound apomorphine” value [2] is given as “much less active”.
With `CCCN1CCc2cccc3c2C1Cc1ccc(O)c(OC(=O)C(C)(C)C)c1-3` (stereo not drawn) [MPNPA, mono-pivaloyl-N-propyl-noraporphine] the “period of intense stereotypy” value (rat; one entero-coated tablet containing about 1 mg MPNPA base, observed during the microdialysis experiment) was “between four hours and eight hours”, the “period of continuous decrease of dopamine release” value ([1]; one entero-coated tablet containing about 1 mg MPNPA base) was “between one hour and four hours” and the dopamine release ([1]; one entero-coated tablet containing about 1 mg MPNPA base, at 18 hours after application of the pill) was 80 % of controls. The “dopamine release, maximal decrease” value ([1]; one entero-coated tablet containing about 1 mg MPNPA base, at four hours) was 30 % of controls.
For monopivaloyl-apomorphine [Mono-Piv-Apo], the “duration of dopaminergic behavior: dur (total duration of action)” value (from here on “duration of dopaminergic behavior: dur”) (rats; 4.6 mg/kg) was 120 min, the “duration of dopaminergic behavior: intense stereotypy” value (rats; 4.6 mg/kg) was “intense stereotypy (5-105); less intense min” and the “duration of dopaminergic behavior: less intense stereotypy” value (“duration … less intense stereotypy” for short) (rats; 4.6 mg/kg) was 105 to 115 min. The “duration of dopaminergic behavior: dur” value (rats; 5.9 mg/kg) was 135 min and 120 min, the “duration … less intense stereotypy” value (rats; 5.9 mg/kg, 5.9 mg/kg) was 105 to 130 min and 80 to 90 min and the “dopamine release at maximal decrease” value [1, 5] was 80 % of control values. For the same molecule, the “maximal decrease of dopamine release” value [1, 5] was 20%, the “time after which dopamine release decreases” value [1, 5] was “about 60 minutes” and the “time until dopamine release is back to control values” [1, 5] was “after about eight hours”.
With `CN1CCc2cccc3c2[C@H]1Cc1ccc(O)c(O)c1-3` [Apomorphine Hydrochloride, apomorphine hydrochloride] the dopaminergic stimulation observed (rats; [6]) was “Very weak dopaminergic stimulation”, the “time period in which dopaminergic effects were observed” value (rats; [6]) was 10 to 20 min and the “duration of dopaminergic behavior: dur” value (rats; 4.0 mg/kg) was 90 min. For the same molecule, the “duration of dopaminergic behavior: intense stereotypy” value (rats; 4.0 mg/kg) was “intense stereotypy (5-75); less intense min”, the “duration … less intense stereotypy” value (rats; 4.0 mg/kg) was 75 to 85 min and the “duration of dopaminergic behavior: dur” value (rats; 5.0 mg/kg, hydrochloride) was 95 min and 60 min. The “duration … less intense stereotypy” value (rats; 5.0 mg/kg, hydrochloride, 5 mg/kg) was 40 to 90 min and 45 to 55 min.
In the case of `CCCN1CCc2cccc3c2[C@H]1Cc1ccc(O)c(O)c1-3` [NPA, 6aR-(-)-N-propyl-norapomorphine], the “duration of dopaminergic behavior: dur” value (rats; 5.0 mg/kg) is reported as greater than 540 min.
